Values after ≈ are worked out from the molar mass of the structure shown. Where two headings read alike, the source gives them in different places.
Tests used:
[1] = tested on: Staphylococcus aureus, E. coli and Salmonella typhimurium; conditions: cited from earlier work
[2] = tested on: Salmonella typhimurium (ATCC #14028); experiment: Salmonella typhimurium suspension in test tubes with formaldehyde and/or pelargonic acid, plate count (Example 1); assay type: cell-based
Protocol: (§1) Solutions were vortexed for 10 seconds to ensure mixing. There were three replicate tubes per treatment. A suspension of Salmonella typhimurium (10^3 cfu/ml, ATCC #14028) was added to three test tubes containing each formulation. The solutions were vortexed, incubated at room temperature for 24 hours plated on SMA (Standard Methods Agar) for 24 hours before counting Salmonella colonies.

[3] = tested on: Salmonella typhimurium (ATCC #14028); experiment: Salmonella typhimurium suspension in test tubes with formaldehyde and/or pelargonic acid, plate count (Example 2); assay type: cell-based
Protocol: as §1, with “24 hours and plated on” for “24 hours plated on”

Salmonella typhimurium [4] = experiment: In vitro test of five formulations against Salmonella typhimurium suspension (Example 3); assay type: cell-based; conditions: pelargonic acid at 10% of formula
Protocol: Formulations were added to test tubes at concentrations of 0.01% and 0.05%. Solutions were vortexed for 10 seconds to ensure mixing. There were three replicate tubes per treatment.
A suspension of Salmonella typhimurium (10^4 cfu/ml) was added to three test tubes containing the different dilutions of each formulation. The tubes were vortexed, incubated at room temperature for 24 hours and then the solution was plated on SMA (Standard Methods Agar) for 48 hours before counting Salmonella colonies.

Salmonella typhimurium [5] = experiment: Residual activity in treated poultry mash feed contaminated after treatment (Example 6); assay type: cell-based; conditions: for % Reduction at 13 Days: feed contaminated 13 days post treatment
Protocol: Formula 1 from Example 3 composed of 25% trans-2-hexenal, 5% pelargonic acid and 70% aqueous organic acids was compared to trans-2-hexenal for residual activity in feed. Poultry mash feed was treated with 0.1, 0.25, 0.5 or 1.0 kg/ton of hexenal compared to 1 kg/ton of the hexenal: pelargonic acid combination product (0.25 kg/ton of hexenal), At 1, 6 and 13 days post treatment, feed was contaminated with a meat and bone meal inoculum of Salmonella typhimurium at a level of 10^3 cfu/g of feed. After 24 hours, 10 g of subsamples of the untreated and treated feed were suspended in 90 ml Butterfield buffer. Dilutions were plated on XLT-4 agar and incubated at 37° C. for 48 hours before counting Salmonella colonies.

Salmonella typhimurium [6] = experiment: In vitro test of aldehyde / hexenal / pelargonic acid formulations against Salmonella typhimurium suspension (Example 7); assay type: cell-based; conditions: for ability to replace trans-2-hexenal (in words): At both 5% and 10% pelargonic acid
Protocol: Seven aldehydes (butyraldehyde, citral, undecylenic aldehyde, decadienal, cinnamaldehyde, decanal and furfural) were blended with trans-2-hexenal, pelargonic acid, propionic acid and acetic acid as presented in Table 9. A 20% (X−1) and a 25% (F18) hexanal: organic acid product were included as positive controls. […] Solutions were vortexed for 10 seconds to uniformly mix the solution. There were three replicate tubes per treatment. […] The solutions were vortexed, incubated at room temperature for 24 hours and then plated on XLT-4 agar for 48 hours before counting Salmonella colonies.

M. gypseum = conditions: cited from earlier work
parasite C. irritans = conditions: cited from earlier work
yeast (10^5 CFU/bottle) = conditions: cited from earlier work
[7] = tested on: Helicobacter pylori and S. cholerasuis; conditions: cited from earlier work
[8] = tested on: B. cereus, S. typhimurium, V. parahaemolyticus, L. monocytogenes, S. aureus and E. coli O157:H7; conditions: cited from earlier work
P. syringae pathovars = conditions: cited from earlier work
E. coli = conditions: cited from earlier work
Phoma mycelium = conditions: cited from earlier work
Penicillium expansum = conditions: cited from earlier work
[9] = tested on: A. flavus, P. notatum, A. alternate, F. oxysporum, Cladosporium species, B. subtilis and A. tumerfaciens; conditions: cited from earlier work
mold = conditions: 0.86 or 1.71 mmol per 1.1 L container for 2 weeks; cited from earlier work
[10] = tested on: apricots, peaches and nectarines; conditions: cited from earlier work
[11] = rat, cited from earlier work
[12] = rat, in vivo; cited from earlier work
pears and apples = conditions: 12.5 μL/L, twenty four hours to seven days exposure; cited from earlier work
[13] = formaldehyde 0.00312 %, pelargonic acid 0 %
[14] = formaldehyde 0.00625 %, pelargonic acid 0 %
[15] = formaldehyde 0.0125 %, pelargonic acid 0 %
[16] = formaldehyde 0.025 %, pelargonic acid 0 %
[17] = formaldehyde 0 %, pelargonic acid 0.00125 %
[18] = formaldehyde 0 %, pelargonic acid 0.0025 %
[19] = At 5% pelargonic acid, aldehyde by itself
[20] = At 10% pelargonic acid, 20% aldehyde

Structure (SMILES): CC/C=C/CC=O [(3E)-hexenal]
- level effective in controlling [1]: 3 to 30 µg/mL

Structure (SMILES): C=O [Formaldehyde]
- Salmonella % reduction [2, 13]: 17.3%
- Salmonella % reduction [2, 14]: 39.3%
- Salmonella % reduction [2, 15]: 59.0%
- Salmonella % reduction [2, 16]: 90.8%
- Salmonella % reduction [3, 13]: 17.7%
- Salmonella % reduction [3, 14]: 41.0%
- Salmonella % reduction [3, 15]: 50.5%
- Salmonella % reduction [3, 16]: 88.3%

Structure (SMILES): CCCCCCCCC(=O)O [Pelargonic acid, Pelargonic acid (nonanoic acid)]
- bactericidal effect (in words) ([2]; at the highest dose tested): not bactericidal
- Salmonella % reduction ([2]; formaldehyde 0 %, pelargonic acid 0.000312 %): 0%
- Salmonella % reduction ([2]; formaldehyde 0 %, pelargonic acid 0.000625 %): 0%
- Salmonella % reduction [2, 17]: 0%
- Salmonella % reduction [2, 18]: 0%
- effect on the effectiveness of formaldehyde (in words) ([2]; pelargonic acid at 0.00125 and 0.0025%): did appear to increase the effectiveness of formaldehyde
- Salmonella % reduction [3, 17]: 2.1%
- Salmonella % reduction [3, 18]: 8.8%
- Salmonella % reduction ([3]; formaldehyde 0 %, pelargonic acid 0.005 %): 96.5%
- Salmonella % reduction ([3]; formaldehyde 0 %, pelargonic acid 0.01 %): 100%
- effect on bactericidal efficacy of formaldehyde (in words) ([3]; pelargonic acid 0.00125% and 0.0025% mixed with formaldehyde): the bactericidal efficacy of formaldehyde was improved
- impact on Salmonella reduction (in words) ([3]; pelargonic acid alone at 0.00125% and 0.0025%): did not have a significant impact on Salmonella reduction
- effect on efficacy of trans-2-hexenal (in words) (Salmonella typhimurium [4]): increases the efficacy of trans-2-hexenal
- effectiveness against Salmonella versus trans-2-hexenal alone (in words) (Salmonella typhimurium [5]; addition of pelargonic acid (5%) to trans-2-hexenal): better effectiveness against Salmonella than trans-2-hexenal by itself
- potentiation of aldehyde efficacy (in words) (Salmonella typhimurium [6]): potentiates the efficacy of each individual aldehyde and aldehyde combination
- minimum inhibitory concentration (MIC) (M. gypseum; in liquid media): 50 µg/mL (≈ 316 µM)
- minimum inhibitory concentration (MIC) (M. gypseum; on solid media): 40 µg/mL (≈ 253 µM)
- control of parasite growth (in words) (parasite C. irritans): effective in controlling the growth

Structure (SMILES): CCCC=O [butyraldehyde]
- effectiveness compared with trans-2-hexenal (in words) (Salmonella typhimurium [6]; [19]): not as effective as trans-2-hexenal
- effectiveness compared with trans-2-hexenal (in words) (Salmonella typhimurium [6]; [20]): as effective as 20% trans-2-hexenal
- ability to replace trans-2-hexenal (in words) (Salmonella typhimurium [6]): can partially replace trans-2-hexenal

Structure (SMILES): CCCCCCCCCC(=O)O [capric acid]
- minimum inhibitory concentration (MIC) (M. gypseum; in liquid media): 75 µg/mL (≈ 435 µM)
- minimum inhibitory concentration (MIC) (M. gypseum; on solid media): 20 µg/mL (≈ 116 µM)

Structure (SMILES): O=CC=Cc1ccccc1 [cinnamaldehyde]
- ability to replace trans-2-hexenal (in words) (Salmonella typhimurium [6]): can replace trans-2-hexenal

Structure (SMILES): CC(C)=CCCC(C)=CC=O [citral]
- effectiveness compared with trans-2-hexenal (in words) (Salmonella typhimurium [6]; [19]): not as effective as trans-2-hexenal
- effectiveness compared with trans-2-hexenal (in words) (Salmonella typhimurium [6]; [20]): as effective as 20% trans-2-hexenal
- ability to replace trans-2-hexenal (in words) (Salmonella typhimurium [6]): can partially replace trans-2-hexenal
- concentration equivalent to 25 ppm trans-2-hexenal and thermal treatment (yeast (10^5 CFU/bottle)): 100-120 ppm

Structure (SMILES): CCCCCC=CC=CC=O [decadienal aldehyde, 2-4-decadienal]
- ability to replace trans-2-hexenal (in words) (Salmonella typhimurium [6]): can replace trans-2-hexenal

Structure (SMILES): CCCCCCCCCC=O [decanal]
- ability to replace trans-2-hexenal (in words) (Salmonella typhimurium [6]): can replace trans-2-hexenal

Structure (SMILES): O=Cc1ccco1 [furfural]
- ability to replace trans-2-hexenal (in words) (Salmonella typhimurium [6]): can replace trans-2-hexenal

Structure (SMILES): CCC/C=C/C=O [trans-2-hexenal]
- % Reduction at 13 Days (Salmonella typhimurium [5]; 0.10 kg/ton hexenal): 0%
- % Reduction at 13 Days (Salmonella typhimurium [5]; 0.25 kg/ton hexenal): 0%
- % Reduction at 13 Days (Salmonella typhimurium [5]; 0.50 kg/ton hexenal): 77.4%
- % Reduction at 13 Days (Salmonella typhimurium [5]; 1.00 kg/ton hexenal): 87.1%
- minimum biocidal activity [7]: 800 µg/mL
- minimum inhibitory activity [7]: 400 µg/mL
- effective concentration [8]: 247 mg/L
- concentration that completely inhibited proliferation (P. syringae pathovars): 570 ug/L of air
- concentration that completely inhibited proliferation (E. coli): 930 micrograms/L of air
- concentration effective at inhibiting growth (Phoma mycelium): 250 µg/mL
- concentration effective on controlling (Penicillium expansum): 12.5 μL/L
- concentration that completely inhibited the growth [9]: 8 ng/L air
- concentration necessary to stabilize beverages (yeast (10^5 CFU/bottle); beverages not thermally treated): 35 ppm
- concentration controlling yeast in beverages (yeast (10^5 CFU/bottle); with thermal treatment (56° C. for 20 min)): 25 ppm
- control of mold (in words) (mold): showed promise for control of mold
- phytotoxicity (in words) ([10]; apricots): not phytotoxic
- phytotoxicity (in words) ([10]; peaches and nectarines at 40 μL/L): phytotoxic
- body weight and intake (in words) ([11]; 4000 ppm in diet, 13 wk): reduction in body weight and intake, but it was not significant
- hematological parameters or organ weights (in words) ([11]; dietary levels 260, 640, 1600 or 4000 ppm for 13 wk): did not induce any changes in hematological parameters or organ weights
- toxic levels in rats relative to normal intake by humans [12]: 30 times
- fruit quality (in words) (pears and apples): did not affect fruit appearance, color, firmness, soluble solids content or titratable acidity

Structure (SMILES): C=CCCCCCCCCC=O [undecylenic aldehyde]
- ability to replace trans-2-hexenal (in words) (Salmonella typhimurium [6]): can replace trans-2-hexenal

— patent US10736343B2, “Antimicrobial formulations with pelargonic acid” (ANITOX CORPORATION, priority 2011, dated 2020)
